According to the supplement of paper PMC10307832:

Columns and labels:
Assay in all cases: relative viability (nuclei count vs DMSO), 5 days (fraction); higher = more cells survive
[1] = compound: C#Cc1cccc(Nc2ncnc3cc(OCCOC)c(OCCOC)cc23)c1 [Erlotinib] + CC(=O)Nc1cccc(-n2c(=O)n(C3CC3)c(=O)c3c(Nc4ccc(I)cc4F)n(C)c(=O)c(C)c32)c1 [Trametinib] (partner 0.02 µM)
Summary of the method: (§1)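 Lung cancer cell lines, seeded in 1536-well plates, were treated the following day by pin tool with a single drug or with five library-drug doses (not always all listed) in √10 steps on top of a fixed anchor-drug dose. Cells were fixed and nuclei stained in one step after 5 days, and nuclei were counted. Relative viability is the nuclei count for treated wells divided by that for vehicle wells, reported as medians of duplicate plates.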

[2] = compound: C#Cc1cccc(Nc2ncnc3cc(OCCOC)c(OCCOC)cc23)c1 [Erlotinib] + CS(=O)(=O)CCNCc1ccc(-c2ccc3ncnc(Nc4ccc(OCc5cccc(F)c5)c(Cl)c4)c3c2)o1 [Lapatinib] (partner 2 µM)
Summary of the method: as §1

[3] = compound: O=C(Nc1c[nH]nc1-c1nc2ccc(CN3CCOCC3)cc2[nH]1)NC1CC1 [AT9283] + CC(=O)Nc1cccc(-n2c(=O)n(C3CC3)c(=O)c3c(Nc4ccc(I)cc4F)n(C)c(=O)c(C)c32)c1 [Trametinib] (partner 0.02 µM)
Summary of the method: as §1

[4] = compound: O=C(Nc1c[nH]nc1-c1nc2ccc(CN3CCOCC3)cc2[nH]1)NC1CC1 [AT9283] + CC(=O)c1c(C)c2cnc(Nc3ccc(N4CCNCC4)cn3)nc2n(C2CCCC2)c1=O [Palbociclib] (partner 0.5 µM)
Summary of the method: as §1

[5] = compound: O=C(Nc1c[nH]nc1-c1nc2ccc(CN3CCOCC3)cc2[nH]1)NC1CC1 [AT9283] + Cc1nc(Nc2ncc(C(=O)Nc3c(C)cccc3Cl)s2)cc(N2CCN(CCO)CC2)n1 [Dasatinib] (partner 0.075 µM)
Summary of the method: as §1

Cell Line | relative viability ([1]; first compound 0.02 µM) | relative viability ([1]; first compound 0.2 µM) | relative viability ([1]; first compound 0.6325 µM) | relative viability ([1]; first compound 2 µM) | relative viability ([2]; first compound 0.02 µM) | relative viability ([2]; first compound 0.2 µM) | relative viability ([2]; first compound 2 µM) | relative viability ([3]; first compound 0.003 µM) | relative viability ([3]; first compound 0.03 µM) | relative viability ([3]; first compound 0.09487 µM) | relative viability ([3]; first compound 0.3 µM) | relative viability ([4]; first compound 0.003 µM) | relative viability ([4]; first compound 0.03 µM) | relative viability ([4]; first compound 0.09487 µM) | relative viability ([4]; first compound 0.3 µM) | relative viability ([5]; first compound 0.003 µM) | relative viability ([5]; first compound 0.03 µM) | relative viability ([5]; first compound 0.09487 µM) | relative viability ([5]; first compound 0.3 µM) | relative viability ([2]; first compound 0.6325 µM)
SW 1573 | 0.568 | 0.557 | 0.526 | 0.474 | 1.3 | 1.05 | 1.17 | 0.597 | 0.174 | 0.17 | 0.143 | 0.333 | 0.158 | 0.173 | 0.121 | 0.496 | 0.115 | 0.0919 | 0.0873 | –
NCI-H460 | 0.104 | 0.129 | 0.131 | 0.0721 | 0.918 | 1.1 | 0.959 | 0.143 | 0.215 | 0.0758 | 0.0307 | 0.146 | 0.191 | 0.0941 | 0.0475 | 0.395 | 0.495 | 0.265 | 0.0688 | 0.999
EMC-BAC-2 | – | 0.765 | 0.901 | 0.739 | 0.934 | 0.828 | 0.822 | 0.923 | 0.58 | 0.362 | 0.336 | 0.471 | 0.376 | 0.289 | 0.247 | 0.273 | 0.245 | 0.131 | 0.142 | –
PC-3 [JPC-3] | 0.557 | 0.427 | 0.337 | 0.332 | 0.437 | 0.383 | 0.399 | 0.718 | 0.672 | 0.71 | 0.481 | 0.602 | 0.533 | 0.575 | 0.484 | 1.06 | 1.02 | 0.876 | 0.718 | 0.442
LXF-289 | 0.639 | 0.672 | 0.647 | 0.684 | 0.89 | 0.953 | 0.889 | 0.695 | 0.686 | 0.254 | 0.145 | 0.608 | 0.647 | 0.254 | 0.152 | 0.227 | 0.106 | 0.0281 | 0.029 | 0.899
NCI-H2126 | 0.569 | 0.467 | 0.441 | 0.496 | 0.771 | 0.763 | 0.727 | 0.573 | 0.566 | 0.38 | 0.293 | 0.341 | 0.35 | 0.365 | 0.272 | 0.587 | 0.602 | 0.439 | 0.271 | 0.788
BEN | 1.01 | 0.883 | 1.24 | 1.16 | 0.689 | 0.802 | 0.735 | 0.838 | 1.17 | 0.568 | 0.368 | 0.458 | 0.456 | 0.412 | 0.356 | 0.256 | 0.369 | 0.311 | 0.14 | 1.03
NCI-H3122 | 0.254 | 0.271 | 0.22 | 0.246 | 1.08 | 1.03 | 1.01 | 0.277 | 0.247 | 0.168 | 0.097 | 0.187 | 0.208 | 0.169 | 0.153 | 0.763 | 0.664 | 0.111 | 0.0513 | 0.982
